According to US12662451B2, “Chemical compounds and uses thereof” (GLAXOSMITHKLINE INTELLECTUAL PROPERTY (NO.4) LIMITED, priority 2023, dated 2026):
Counter-ions that a name gives are not always drawn. Like-named read-outs stand apart in the source and are kept apart here.

What was measured:
[1] = test system: SW48 human colorectal cancer cells (MSI-H cancer cells); experiment: SW48 cell viability, CellTiter-Glo, 120 hours (Example B); settings: Homo sapiens
[2] = Cell culture media unbound percentage and stability by rapid equilibrium dialysis (Example C); assay type: in vitro ADME; settings: bovine, cell assay medium (RPMI-1640 with 10% fetal bovine serum), pH 7.4, rapid equilibrium dialysis, 4 hours at 37° C., read-out: Cell Culture Media Binding (% unbound)
Procedure, shortened: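 Percent unbound in cell assay medium came from the LC-MS/MS receiver:donor peak area ratio, with stability taken as the 240 min over 0 min ratio. Set-up: 1 μM nominal compound in medium dialysed against pH 7.4 PBS (100 mM phosphate, 150 mM NaCl), 4 h, 37° C, shaken, in triplicate.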

[3] = biological target: T1, recombinant full-length WRN protein (1-1432) (Homo sapiens, UniProt Q14191); experiment: WRN unwinding activity, fluorogenic 384-well assay (Example A); assay type: biochemical; settings: WRN unwinding activity, 4 hr; Table 2; read-out: 4 hr UNW pIC50 (converted)
T1 construct: recombinant full-length WRN protein (1-1432)
T1 sequence (Q14191 whole entry): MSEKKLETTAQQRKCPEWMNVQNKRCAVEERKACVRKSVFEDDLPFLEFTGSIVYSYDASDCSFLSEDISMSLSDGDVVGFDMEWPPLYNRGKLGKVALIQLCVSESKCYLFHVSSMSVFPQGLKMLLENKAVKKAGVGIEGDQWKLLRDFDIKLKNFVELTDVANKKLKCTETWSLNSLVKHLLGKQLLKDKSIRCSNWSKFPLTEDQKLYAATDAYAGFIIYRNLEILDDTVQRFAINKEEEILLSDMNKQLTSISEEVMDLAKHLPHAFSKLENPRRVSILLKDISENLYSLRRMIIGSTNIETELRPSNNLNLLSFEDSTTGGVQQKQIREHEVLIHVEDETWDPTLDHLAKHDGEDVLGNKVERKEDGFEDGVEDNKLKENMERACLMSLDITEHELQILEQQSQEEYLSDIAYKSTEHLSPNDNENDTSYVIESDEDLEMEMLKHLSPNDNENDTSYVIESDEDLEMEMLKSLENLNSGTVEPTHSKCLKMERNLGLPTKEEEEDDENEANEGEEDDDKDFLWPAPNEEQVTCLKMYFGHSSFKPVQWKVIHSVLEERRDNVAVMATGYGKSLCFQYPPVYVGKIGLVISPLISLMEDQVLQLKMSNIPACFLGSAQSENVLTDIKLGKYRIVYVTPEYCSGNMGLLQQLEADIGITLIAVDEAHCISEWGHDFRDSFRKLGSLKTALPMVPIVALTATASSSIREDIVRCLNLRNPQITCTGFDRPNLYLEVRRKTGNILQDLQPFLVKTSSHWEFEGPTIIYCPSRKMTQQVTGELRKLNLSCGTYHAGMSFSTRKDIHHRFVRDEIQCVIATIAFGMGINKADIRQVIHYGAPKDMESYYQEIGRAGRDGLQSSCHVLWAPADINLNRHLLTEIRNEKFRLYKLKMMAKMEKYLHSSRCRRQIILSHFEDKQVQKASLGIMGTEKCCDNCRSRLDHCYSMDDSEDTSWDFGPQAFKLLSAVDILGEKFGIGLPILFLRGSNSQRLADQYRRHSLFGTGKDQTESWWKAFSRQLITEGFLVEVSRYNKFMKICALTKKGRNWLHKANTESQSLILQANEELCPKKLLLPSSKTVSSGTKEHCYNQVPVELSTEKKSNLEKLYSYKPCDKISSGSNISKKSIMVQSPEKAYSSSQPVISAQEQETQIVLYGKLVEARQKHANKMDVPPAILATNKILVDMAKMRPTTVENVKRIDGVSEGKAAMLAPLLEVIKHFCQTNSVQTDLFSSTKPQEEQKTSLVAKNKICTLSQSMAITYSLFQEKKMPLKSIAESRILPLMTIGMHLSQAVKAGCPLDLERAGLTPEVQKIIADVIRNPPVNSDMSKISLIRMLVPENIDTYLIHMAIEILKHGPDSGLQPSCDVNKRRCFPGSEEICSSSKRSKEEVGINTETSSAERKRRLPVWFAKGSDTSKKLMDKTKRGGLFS
Procedure, shortened: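 Read-out is end-point unwinding of a fluorophore/quencher duplex (ex 525, em 598 nm) after 60 min with 200 μM ATP and 12 nM DNA (2× stocks), EDTA stop. Compound first sat 4 h with 200 pM WRN (2× stock) in pH 8.0 Tris buffer; four-parameter fit gives pIC50.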

[4] = test system: SW48 human colorectal cancer cells; experiment: Calculated free drug potency in SW48 cell assay, corrected with media free fraction (Example C); assay type: cell-based; settings: Homo sapiens, SW48, SW48 pCC50 corrected with measured free fraction in cell assay media
Procedure, shortened: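 Free drug potency derives from correcting SW48 assay concentrations with the unbound fraction in medium. That fraction came from RED against pH 7.4 PBS, 1 μM nominal compound, 4 h at 37 °C, quantified by LC-MS/MS peak area ratios at T=240 versus T=0 min.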

[5] = SW48, 120 h, read-out: SW48 pCC50, SW48 cell viability, 120 hours incubation (converted), Table 2
[6] = SW48, read-out: SW48 pCC50, measured potency from Example B, as repeated in Table 3 (converted)

| Structure (SMILES) | fraction unbound at 4 h, 1 µM [2] | IC50 [3] | CC50 [1, 5] | CC50 [4] | CC50 [1, 6] |
| --- | --- | --- | --- | --- | --- |
| Cc1nc2cc(S(=O)(=O)N(C)c3ccc([C@H]4CCC[C@@H](C(=O)Nc5ccc6c(c5)CC(F)(F)C6)[C@@H]4C(=O)O)cc3)ccc2n1C [Example 194, (1R,2R,6S)-2-((2,2-difluoro-2,3-dihydro-1H-inden-5-yl)carbamoyl)-6-(4-((N,1,2-trimethyl-1H-benzo[d]imidazole)-5-sulfonamido)phenyl)cyclohexane-1-carboxylic acid] | 0.114 | 7.94 nM | 10000 nM | 1150 nM | – |
| CCc1ccc(NC(=O)[C@@H]2CCC[C@H](c3ccc(N(C)S(=O)(=O)c4ccc5c(c4)nc(C)n5C)cc3)[C@H]2C(=O)O)cc1 [Example 196, (1R,2R,6S)-2-((4-ethylphenyl)carbamoyl)-6-(4-((N,1,2-trimethyl-1H-benzo[d]imidazole)-5-sulfonamido)phenyl)cyclohexane-1-carboxylic acid] | 0.0606 | 3.16 nM | 1580 nM | 95.5 nM | 1580 nM |
| Cc1nc2cc(S(=O)(=O)N(C)c3ccc([C@H]4CCC[C@@H](COc5ccc(C(F)(F)F)cc5O)[C@@H]4C(=O)O)cc3)ccc2n1C [Example 206, (1R,2R,6S)-2-((2-hydroxy-4-(trifluoromethyl)phenoxy)methyl)-6-(4-((N,1,2-trimethyl-1H-benzo[d]imidazole)-5-sulfonamido)phenyl)cyclohexane-1-carboxylic acid] | 0.0032 | 15.8 nM | 3980 nM | 12.9 nM | 3980 nM |
| Cc1nc2cc(S(=O)(=O)N(C)c3ccc([C@H]4CCC[C@@H](COc5ccc(C(F)(F)F)cc5)[C@@H]4C(=O)O)cc3)ccc2n1CCN(C)C [Example 219, (1R,2S,6R)-2-(4-((1-(2-(dimethylamino)ethyl)-N,2-dimethyl-1H-benzo[d]imidazole)-5-sulfonamido)phenyl)-6-((4-(trifluoromethyl)phenoxy)methyl)cyclohexane-1-carboxylic acid] | 0.0031 | 5.01 nM | 6310 nM | 19.5 nM | 6310 nM |
| CN(c1ccc([C@H]2CCC[C@@H](C(=O)Nc3ccc(C(F)(F)F)cc3F)[C@@H]2C(=O)O)cc1)S(=O)(=O)c1cccc(C2CCNCC2)c1 [Example 261, (1R,2R,6S)-2-((2-fluoro-4-(trifluoromethyl)phenyl)carbamoyl)-6-(4-((N-methyl-3-(piperidin-4-yl)phenyl)sulfonamido)phenyl)cyclohexane-1-carboxylic acid] | 0.311 | 1.58 nM | 1000 nM | 309 nM | 1000 nM |
| CN(c1ccc([C@H]2CCC[C@@H](C(=O)Nc3ccc(C(F)(F)F)cc3F)[C@@H]2C(=O)O)cc1)S(=O)(=O)c1cccc([C@@H]2CCCNC2)c1 [Example 262, (1R,2R,6S)-2-((2-fluoro-4-(trifluoromethyl)phenyl)carbamoyl)-6-(4-((N-methyl-3-((S)-piperidin-3-yl)phenyl)sulfonamido)phenyl)cyclohexane-1-carboxylic acid] | 0.241 | 1.58 nM | 1000 nM | 240 nM | 1000 nM |
| CN(c1ccc([C@H]2CCC[C@@H](C(=O)Nc3ccc(C(F)(F)F)cc3F)[C@@H]2C(=O)O)cc1)S(=O)(=O)c1cccc([C@H]2CCCNC2)c1 [Example 263] | 0.278 | 1.58 nM | 200 nM | 55 nM | 200 nM |
| CN1CCN(c2cc(S(=O)(=O)N(C)c3ccc([C@H]4CCC[C@@H](C(=O)Nc5ccc(C(F)(F)F)cc5F)[C@@H]4C(=O)O)cc3)cc3ccoc23)CC1 [Example 265, (1R,2R,6S)-2-((2-fluoro-4-(trifluoromethyl)phenyl)carbamoyl)-6-(4-((N-methyl-7-(4-methylpiperazin-1-yl)benzofuran)-5-sulfonamido)phenyl)cyclohexane-1-carboxylic acid] | 0.115 | 6.31 nM | 794 nM | 91.2 nM | 794 nM |

Second part, led by results:

| fraction unbound at 4 h, 1 µM [2] | IC50 [3] | Structure (SMILES) | CC50 [1, 5] | CC50 [4] | CC50 [1, 6] |
| --- | --- | --- | --- | --- | --- |
| 0.141 | 1.26 nM | CN(c1ccc([C@H]2CCC[C@@H](C(=O)Nc3ccc(C(F)(F)F)cc3F)[C@@H]2C(=O)O)cc1)S(=O)(=O)c1ccc2c(c1)nc(N)n2C [Example 266, (1R,2S,6R)-2-(4-((2-amino-N,1-dimethyl-1H-benzo[d]imidazole)-5-sulfonamido)phenyl)-6-((2-fluoro-4-(trifluoromethyl)phenyl)carbamoyl)cyclohexane-1-carboxylic acid] | 398 nM | 56.2 nM | 398 nM |
| 0.226 | 1 nM | CN(c1ccc([C@H]2CCC[C@@H](C(=O)Nc3ccc(C(F)(F)F)cc3F)[C@@H]2C(=O)O)cc1)S(=O)(=O)c1ccc2c(c1)nc(CCN)n2C [Example 267, (1R,2S,6R)-2-(4-((2-(2-aminoethyl)-N,1-dimethyl-1H-benzo[d]imidazole)-5-sulfonamido)phenyl)-6-((2-fluoro-4-(trifluoromethyl)phenyl)carbamoyl)cyclohexane-1-carboxylic acid hydrochloride] | 794 nM | 178 nM | 794 nM |
| 0.236 | 1.58 nM | CN(C)CCc1nc2cc(S(=O)(=O)N(C)c3ccc([C@H]4CCC[C@@H](C(=O)Nc5ccc(C(F)(F)F)cc5F)[C@@H]4C(=O)O)cc3)ccc2n1C [Example 272, (1R,2S,6R)-2-(4-((2-(2-(dimethylamino)ethyl)-N,1-dimethyl-1H-benzo[d]imidazole)-5-sulfonamido)phenyl)-6-((2-fluoro-4-(trifluoromethyl)phenyl)carbamoyl)cyclohexane-1-carboxylic acid] | 158 nM | 37.2 nM | 158 nM |
| 0.0082 | 5.01 nM | CN(c1ccc([C@H]2CCC[C@@H](COc3ccc(C(F)(F)F)cc3)[C@@H]2C(=O)O)cc1)S(=O)(=O)c1ccc2c(c1)nc(CCN)n2C [Example 273] | 7940 nM | 64.6 nM | 7940 nM |
| 0.0083 | 2 nM | CN(C)CCc1nc2cc(S(=O)(=O)N(C)c3ccc([C@H]4CCC[C@@H](COc5ccc(C(F)(F)F)cc5)[C@@H]4C(=O)O)cc3)ccc2n1C [Example 275] | 5010 nM | 41.7 nM | 5010 nM |
| 0.197 | 0.631 nM | Cc1nc2cc(S(=O)(=O)N(C)c3ccc([C@H]4CCC[C@@H](C(=O)Nc5ccc(C(F)(F)F)cc5F)[C@@H]4C(=O)O)cc3)ccc2n1CCN [Example 277, (1R,2S,6R)-2-(4-((1-(2-aminoethyl)-N,2-dimethyl-1H-benzo[d]imidazole)-5-sulfonamido)phenyl)-6-((2-fluoro-4-(trifluoromethyl)phenyl)carbamoyl)cyclohexane-1-carboxylic acid] | 1580 nM | 309 nM | 1580 nM |
| 0.208 | 0.631 nM | Cc1nc2cc(S(=O)(=O)N(C)c3ccc([C@H]4CCC[C@@H](C(=O)Nc5ccc(C(F)(F)F)cc5F)[C@@H]4C(=O)O)cc3)ccc2n1CCN(C)C [Example 278, (1R,2S,6R)-2-(4-((1-(2-(dimethylamino)ethyl)-N,2-dimethyl-1H-benzo[d]imidazole)-5-sulfonamido)phenyl)-6-((2-fluoro-4-(trifluoromethyl)phenyl)carbamoyl)cyclohexane-1-carboxylic acid] | 126 nM | 26.3 nM | 126 nM |
| 0.079 | 2 nM | CCO[C@@H]1C[C@H](c2ccc(N(C)S(=O)(=O)c3ccc4c(c3)nc3n4CCCC3)cc2)[C@@H](C(=O)O)[C@H](C(=O)Nc2ccc(C(F)(F)F)cc2F)C1 [Example 279, (1R,2R,4R,6S)-4-ethoxy-2-((2-fluoro-4-(trifluoromethyl)phenyl)carbamoyl)-6-(4-((N-methyl-1,2,3,4-tetrahydrobenzo[4,5]imidazo[1,2-a]pyridine)-7-sulfonamido)phenyl)cyclohexane-1-carboxylic acid] | 126 nM | 10 nM | 126 nM |
| 0.148 | 1.58 nM | CCO[C@@H]1C[C@H](c2ccc(N(C)S(=O)(=O)c3ccc4[nH]c(C)nc4c3)cc2)[C@@H](C(=O)O)[C@H](C(=O)Nc2ccc(C(F)(F)F)cc2F)C1 [Example 281, (1R,2S,4R,6R)-2-(4-((N,2-dimethyl-1H-benzo[d]imidazole)-5-sulfonamido)phenyl)-4-ethoxy-6-((2-fluoro-4-(trifluoromethyl)phenyl)carbamoyl)cyclohexane-1-carboxylic acid] | 794 nM | 117 nM | 794 nM |
